Data on two molecules can be found in US10123981B2, “Methods for treatment of pelvic pain and/or comorbid conditions” (priority 2012, dated 2018).

Molecules are shown by their SMILES. Like-named read-outs stand apart in the source and are kept apart here.

A short description of series [1]: In vitro release of lidocaine from silicone tube devices (diffusion through wall / apertures). The format is physicochemical. Conditions: in vitro in water at about 37° C.; tubes with or without apertures. The method, then:
A study was performed to determine the feasibility of delivering drug through the wall of a drug reservoir via diffusion. […] Some of the devices included an aperture formed through the tube wall, the aperture having a diameter of 150 μm. […] The devices were tested in vitro in water at about 37° C. […] Another study was performed to investigate the feasibility of delivering drug from a device through both a wall of a drug reservoir and from an aperture in the wall of the drug reservoir. Devices were formed form silicone tubes having a length of about 3 cm. […] The devices were tested in vitro in water at about 37° C.

Series [2] deals with IC. The settings on record: cited from earlier work.

As for `CCN(CC)CC(=O)Nc1c(C)cccc1C` [lidocaine base], in series [1], the “release of drug from silicone tube” value is reported as “can be released from a silicone tube without any apertures”.

With `CCN(CC)CC(=O)Nc1c(C)cccc1C` [lidocaine], the mean pain score in series [2] (after second instillation) is listed as 1.2; in series [2] (immediately following treatment (prior to treatment 6.0)), 1.8; in series [2] (the next day) it was 3.7. In addition, the duration of effect entry in series [2] (single instillation) is “approximately 24 hours”.
